From patent US6960573B2, “Vitamin D3 derivative and treating agent for inflammatory respiratory disease using same” (Teijin Limited, priority 1998, dated 2005)

system: hamster LPS-induced pneumonia model; assay: Neutrophilic infiltration suppressing effect, hamster LPS-induced pneumonia model; type: in vivo, golden hamster; conditions: Mesocricetus auratus, Neutrophil, inhaled or nasal; dose 4 μg/kg, administered infratracheally just after LPS inhalation; neutrophils in washing after 24 hr; read-out: % Suppression (number of neutrophils, based on the control)
Protocol: A male golden hamster was placed in an inhalation chamber (volume: 12 liter) and allowed to inhale LPS (nebulizer filled concentration: 2.0 mg/ml) generated by an ultrasonic nebulizer for 30 min to cause pneumonia. Just after the inhalation of the LPS, a treating agent of the present invention was administered infratracheally at a dosage of 1 to 20 μg/kg under halothane anesthesia. After 24 hr, tracheal branches and pulmonary alveoli were washed, and the number of neutrophils in the washing was determined. Using the number of neutrophils obtained in the absence of the treating agent of the present invention as the control, the decreasing rates of the numbers of neutrophils were expressed in terms of percent suppression based on the control.

`C=C1/C(=C\C=C2/CCC[C@@]3(C)C2CC[C@@H]3[C@H](C)CC2CC(C)(C)C(=O)O2)C[C@@H](O)C[C@@H]1O` (some centres unmarked) [2102a] and `C=C1/C(=C\C=C2/CCC[C@@]3(C)C2CC[C@@H]3[C@H](C)CC2CC3(CC3)C(=O)O2)C[C@@H](O)C[C@@H]1O` (some centres unmarked) [2105a] cannot be ordered by inhibition in vivo at 0.004 mg/kg: > 40% for the first, > 40% for the second.

`C=C1/C(=C\C=C2/CCC[C@@]3(C)C2CC[C@@H]3[C@H](C)/C=C2\CCC(C)(F)C2=O)C[C@@H](O)C[C@@H]1O` (some centres unmarked) [3105d] and `C=C1/C(=C\C=C2/CCC[C@@]3(C)C2CC[C@@H]3[C@H](C)/C=C2\CCN(C)C2=O)C[C@@H](O)C[C@@H]1O` (some centres unmarked) [Compound No. 3405] cannot be ordered by inhibition in vivo at 0.004 mg/kg: > 40% for the first, > 40% for the second.

Compared with `C=C1/C(=C\C=C2/CCC[C@@]3(C)C2CC[C@@H]3[C@H](C)CC2CCC(=O)C2)C[C@@H](O)C[C@@H]1O` (some centres unmarked) [4101a], `C=C1/C(=C\C=C2/CCC[C@@]3(C)C2CC[C@@H]3[C@H](C)C[C@H]2C=C(C)C(=O)O2)C[C@@H](O)C[C@@H]1O` (some centres unmarked) [Compound No. 1107b] is lower in inhibition in vivo at 0.004 mg/kg: 20 to 40% for the first, < 20% for the second.

Molecule `C=C1/C(=C\C=C2/CCC[C@@]3(C)C2CC[C@@H]3C(C)/C=C2\CCC(=O)C2(C)O)C[C@@H](O)C[C@@H]1O` (some centres unmarked) [4203b] has an inhibition in vivo at 0.004 mg/kg of 20 to 40%.

same assay, conditions: Mesocricetus auratus, Neutrophil, inhaled or nasal; dose 20 μg/kg, administered infratracheally just after LPS inhalation; neutrophils in washing after 24 hr; read-out: % Suppression (number of neutrophils, based on the control)

Compared with `C=C1/C(=C\C=C2/CCC[C@@]3(C)C2CC[C@@H]3[C@H](C)CC2=CC(=O)CC2)C[C@@H](O)C[C@@H]1O` (some centres unmarked) [Compound No. 4301], `C=C1/C(=C\C=C2/CCC[C@@]3(C)C2CC[C@@H]3[C@H](C)CCC[C@@](C)(O)C(C)=O)C[C@@H](O)C[C@@H]1O` (some centres unmarked) [Compound No. 5107] is higher in inhibition in vivo at 0.02 mg/kg: < 20% for the first, > 40% for the second.

Compared with `C=C1/C(=C\C=C2/CCC[C@@]3(C)C2CC[C@@H]3[C@H](C)CCC[C@@](C)(O)C(=O)N(C)C)C[C@@H](O)C[C@@H]1O` (some centres unmarked) [Compound No. 5102], `C=C1/C(=C\C=C2/CCC[C@@]3(C)C2CC[C@@H]3[C@H](C)CCC[C@@](C)(O)C(C)(C)O)C[C@@H](O)C[C@@H]1O` (some centres unmarked) [compound 5109] is lower in inhibition in vivo at 0.02 mg/kg: > 40% for the first, 20 to 40% for the second.

In the case of `C=C1/C(=C\C=C2/CCC[C@@]3(C)C2CC[C@@H]3[C@H](C)CCC[C@@](C)(O)C(=O)N2CCCCC2)C[C@@H](O)C[C@@H]1O` (some centres unmarked) [Compound No. 5106], the inhibition in vivo at 0.02 mg/kg is reported as 20 to 40%.

system: not listed separately; assay: Blood calcium level-elevation effect, oral administration to rats; type: in vivo; conditions: ratio to 1α,25-dihydroxyvitamin D3
Description: For example, the blood calcium level-elevation effects of compounds of the present invention in oral administration to rats, which are compared with that of 1 α,25-dihydroxyvitamin D3, are as shown below: • Compound No. 3105c, 1/>100 • Compound No.3405, 1/>100 • Compound No. 5102, 1/259 • Compound No. 5107, 1/11.

In the case of `C=C1/C(=C\C=C2/CCC[C@@]3(C)C2CC[C@@H]3[C@H](C)CCC[C@@](C)(O)C(=O)N(C)C)C[C@@H](O)C[C@@H]1O` (some centres unmarked) [Compound No. 5102], the “blood calcium level-elevation effect compared with that of 1α,25-dihydroxyvitamin D3” value is reported as 1/259.
With `C=C1/C(=C\C=C2/CCC[C@@]3(C)C2CC[C@@H]3[C@H](C)CCC[C@@](C)(O)C(C)=O)C[C@@H](O)C[C@@H]1O` (some centres unmarked) [Compound No. 5107] the “blood calcium level-elevation effect compared with that of 1α,25-dihydroxyvitamin D3” value was 1/11.
